Literature values as cited in US20040260072A1, “Hydrophilic, thiol-reactive cyanine dyes and conjugates thereof with biomolecules for fluorescence diagnosis” (priority 2003, published 2004).

Settings: in DMSO; J Chem Eng Data 1977, 22, 379

SMILES: CC1(C)C(/C=C/C=C/C=C/C=C2\N(CCCCS(=O)(=O)O)c3ccc4ccccc4c3C2(C)C)=[N+](CCCCS(=O)(=O)[O-])c2ccc3ccccc3c21 [Indocyanine Green]
- Fluorescence quantum yield Q: 0.13
